Laboratory results: patent US5792784A, “Coupling product obtained from histamine and an amino acid” (Babizhayev; Marc, priority 1993, dated 1998)

Key:
[1] = Inhibition of deoxyribose oxidation (superoxide from xanthine oxidase/hypoxanthine; TBA/MDA detection); assay type: biochemical; conditions: 10 mM
Text: Several in vitro tests have been carried out in order to reveal the evoked different antioxidant properties.
Experimental procedure described by J. M. C. Gutteridge in Biochemistry Journal, vol. 224 (1984), p. 761-767: oxidation substrate: deoxyribose
Superoxide anions production system: xanthine oxidase/hypoxanthine detection: thiobarbituric acid/malondialdehyde (MDA)

[2] = tested on: lens; experiment: Cataract patients: lens opacity (slit lamp, retroillumination, image analysis); assay type: in vivo; conditions: for decrease of the opacity: 24 months, groups 2 and 3; for integration peak of opacity distribution: posterior subcapsular cataract
Text: The study has been designed for a prospective evaluation of the modifications of the lens opacity in patients effected by cataract. All the patients have undergone an initial ophtalmic examination. It involved the making of the medical historical record of the patient, a measurement of the visual acuity at a maximum correction, direct or indirect ophtalmoscopies, an evaluation of the opacities with the slit lamp, a clinical grading of the lens after maximal mydriasis, a classification according to the cataract type, and lens pictures by retroillumination. Moreover, samples of blood have been taken at the beginning, then in follow-up for chemical analysis.
Changes of the lens have been examined in all the patients by using the microscope with the Zeiss slit lamp. The photographic observations obtained with this technique included a base line examination, intermediate studies and a final examination at the end of the treatment period.
In using the technique of the slit lamp, the lens has been pictured layer by layer in order to visualize all the anterior segment of the eye, from the cornea to the posterior capsule.
With this technique, Red reflex examination has been carried out, according to a conventional retroillumination. Then lens modifications were graded according to the anatomical location and the importance of the modification.
Cortical opacities have been graded and pictured in retroillumination. Afterwards this film has been submitted to a measurement of linear densitometry with a microdensitometer. The opacity values have been reported in relative value using a standard scale of opacification. The cortical opacities measurement have been rated also taking into account of the total surface exposed to radiation. The posterior subcapsular opacities have been measured in retroillumination by the longest height, from the lower part to the top and by the greatest width, using the scale of the slit lamp.
Pictures of the lens also were taken on nuclear and cortical opacities and later on they were graded.
The different negatives taken with the slit lamp have been analyzed with a "plumbicon tube". This equipment allows one to transpose with a large accuracy a measurement of intensity of light into an electric signal which is integrated and stored in an analysis system of computerized image. With the help of a specific program, the lens image in that manner "digitized" could be reproduced as a graph in two or three dimensions.
A detailed description of this method of image processing is given in : Babizhayev M. A. Zhukotskii A. V. and Sologub A. A. (1992), "Image analysis of the lens opacities induced in developing chick embryo by glucocorticoid", Exp. Eye Res. Vol. 55, p.521-537.
The represented histograms show in a concrete example the interest of such evaluation method. A case of posterior subcapsular cataract is studied before and after 21/2 months of treatment following topical applications with eye drops containing 1% of β-alanyl-histamine. The histograms give the quantitative distribution of opacities with an integration peak of 58.44±18.14 before treatment, and of 44.95±8.77 after 21/2 months of treatment.
Following the protocol described above, we determine the values of the optic density of the lens according to its opacity as well as the visual acuity, and the whole for 24 months. Considering these two parameters, we obtain tables giving results concerning the modification of the visual acuity at the end of 24 months in Tables 1 and 2, and the results concerning the modification of the visual opacity at the end of 24 months in Tables 3 and 4.

[3] = after 21/2 months, eye drops 1%

% inhibition of deoxyribose oxidation [1]: 49%
Compound: NCCC(=O)NCCc1c[nH]cn1 [β-alanyl-histamine]
decrease of the opacity ([2]; modification 5 @ 9%): 3
decrease of the opacity ([2]; modification 10 @ 14%): 5
decrease of the opacity ([2]; modification 15 @ 19%): 5
decrease of the opacity ([2]; modification 20 @ 24%): 1
decrease of the opacity ([2]; modification +25%): 5
decrease of the opacity ([2]; total): 19
opacities in the posterior subcapsular region of the lens [2, 3]: partial regression of the opacities
integration peak of opacity distribution [2, 3]: 44.95±8.77
integration peak of opacity distribution ([2]; before treatment): 58.44±18.14
